According to patent publication US11365216B2, “Antiviral immunotropic agent for the treatment of acute respiratory viral infections” (PVP LABS PTE. LTD., priority 2018, dated 2022):
Where a SMILES comes first, the peptide text is derived from it. [ ]: non-standard residue; d: D form.

Experiments:
[1] = tested on: influenza A virus/New Caledonia/20/99 (H1N1); test: microbe, parasite or virus in culture; assay type: cell-based
[2] = tested on: influenza A virus/Aichi/2/69 (H3N2); test: influenza-induced pneumonia in mice; assay type: in vivo
type 5 adenovirus = test: suppression of cytopathogenic effect of adenovirus in monolayer HeLa culture; assay type: cell-based
Description: The work was performed using type 5 adenovirus, which was procured in 1998 from the D.I. Ivanovsky Research Institute of Virology and stored in the Specialised Collection of a branch of the 48th Central Research Institute of the Ministry of Defence of Russia—Computing Centre.
A HeLa type culture (cervical carcinoma cells) with a density of 200-250 thousand/mL was used. Semisynthetic growth media based on Hank's solution containing 7.5 and 2% bovine serum respectively were used. A 48-hour monolayer culture of HeLa cells was infected with type 5 adenovirus at a dose of 0.01 TCID50 per cell. The monolayer culture was then incubated at 37±0.5° C. for 96 hours.
The antiviral activity of the product was evaluated by the suppression of the cytopathogenic effect (CPE) of the virus in the HeLa culture after the virus was applied to an established monolayer culture of HeLa cells.
Efficacy criteria of the test drug were: CPE detection rate and inhibitory constant (Ki, %). The inhibitory constant was calculated according to the following formula: Ki=100. (Cc-Ct)/Cc, where Cc and Ct is the infectious titre of the virus in the control sample and test sample respectively.

IFN-α = test: interferon-inducing effect in mice (ELISA of blood plasma); assay type: in vivo; conditions: 24 hours after administration; Dalargin 1 mg/kg, ARBIDOL intragastrically; versus control groups
Description: The experiments were performed in 40 CBA×C57BI/6/male mice with a body weight of 20-25 g. The animals were randomised in 4 groups (of 10 animals each): two active groups (receiving Dalargin or ARBIDOL) and two control groups. One control group was intended for determining baseline INF levels (before the start of the experiment), the other group was intended for determining INF levels at 24 hours after the administration of placebo (saline), ensuring the equivalence of conditions.
Dalargin was administered at a dose of 1 mg/kg, which is equivalent to a human dose of 5-6 mg. ARBIDOL was administered intragastrically as a suspension premix in 1% starch gel. Statistical analysis was performed using the Bonferroni correction for multiple testing.
IFN-α levels in the blood plasma of mice was measured at 24 hours after the administration of the drugs. Blood for interferon determination was sampled from the heart under Nembutal anaesthesia (60 mg/kg). […] IFN levels were determined using commercially available enzyme-linked immunosorbent assay (ELISA) kits manufactured by VeriKine™ (USA). […]
The test samples and diluted standards were applied to the plate in duplicate. […] The activity of bound peroxidase was measured on a UNIPLAN™ (Picon) immunoassay analyser at 450 nm.

natural killer cells = test: functional (cytotoxic) activity of natural killer cells, radiometric assay with K-562 target cells; assay type: cell-based, healthy donors; conditions: 5.10^−8 M (≈0.036 μg/mL), 24 hours
Description: When evaluating the effect of Dalargin in vitro on the functional activity of NK cells, these cells were obtained from a suspension of peripheral blood mononuclear cells of healthy donors (n=20).
Functional activity of NK cells was determined on the basis of the cytotoxic reaction (NK can lyse cells of myeloblastoid and lymphoblastoid lines) using the radiometric assay. To perform it, cells of the K-562 myeloblastoid line at a concentration of 10^6/mL were incubated for one hour at 37° C. with ^3H-uridine at 3 μCi/mL of the cell suspension on day 2 after subcultivation. After the incubation, the cells were washed off the radiolabel in medium 199 three times. […]
In one case, after the effector cells and target cells were applied to the plates, Dalargin was added at a molar concentration of 5.10^−8 M (≈0.036 μg/mL). […] The plates were then incubated for 24 hours in a CO2 incubator at 37° C., whereupon the contents were transferred to fibreglass filters, washed, dried, placed in vials with a scintillation liquid, and radioactivity was determined using a β-particle counter. cytotoxicity index (CI) was determined using the formula CI=((A−B)/(C−B)). 100%, where A is radioactivity of target cells in the presence of effector cells, B is residual radioactivity after treating the target cells with Triton X-100, C is radioactivity in target cells in the absence of effector cells.

neutrophils = test: phagocytic activity of peptone-mobilised neutrophils; assay type: in vivo, mice; conditions: 0.2 mg/kg single dose, IM or intranasal
Description: (§1) Dalargin is currently authorised for human use in the single dose range from 1 to 5 mg, which, if recalculated for mice, corresponds to z0.2-1 mg/kg. Therefore, the dose used for evaluating the efficacy of the drug in murine phagocytic peritoneal exudate cells was 0.2 mg/kg. Of additional interest was an investigation of possible effect of the route of administration of the drug on functional activity of the phagocytes.
(§2) The immunomodulating activity of the drug was evaluated by microscopy. The test was performed in 60 male BALB/c mice with a body weight of 18-22 g. The animals were allocated to 6 equal groups of 10 mice each. Two groups served as controls. The active therapy groups received Dalargin IM or intranasally at a single dose of 0.2 mg/kg. Macrophage and neutrophil extraction procedures were performed on the next day after administering the study drugs.
The mice were given an intraperitoneal injection of 3-4 mL of 10% peptone solution as a chemoattractant to cause neutrophil accumulation, and 2 hours later the mice were euthanised using chloroform 2 hours later. […]
(§3) The phagocytic activity of neutrophils was evaluated by the following parameters: phagocytic index and phagocyte number. Functional activity of macrophages was evaluated by microscopy, as well as by their ability to absorb nitroblue tetrazolium (NBT) in the activated state.

macrophages = test: phagocytosis and NBT reduction of peritoneal exudate macrophages; assay type: in vivo, mice; conditions: 0.2 mg/kg single dose, IM or intranasal
Description: as §1, §2
In order to isolate macrophages, the mice were euthanised on day 3 after the peptone injection. Then 3-4 mL of medium 199 with 10% of foetal bovine serum was administered intraperitoneally, and the liquid was aspirated. […]
as §3

IL-1 = test: production of pro-inflammatory cytokines in peripheral blood mononuclear cell culture; assay type: cell-based, healthy donors; conditions: 5.10^−8 M, relative to control samples (100%)
Description: (§4) The effect of Dalargin on the synthesis of cytokines IL-1 (interleukin-1), IL-6 (interleukin-6) and TNF-α (tumour necrosis factor α) was evaluated in an in vitro experiment using a peripheral blood mononuclear cell culture of healthy donors (n=20). Stimulation with an enterobacterial polysaccharide was used to induce the production of pro-inflammatory cytokines.
(§5) In order to obtain a suspension of mononuclear cells, blood was diluted at a 1:2 ratio with medium 199, applied to a Ficoll-Paque density gradient, d=1.077 g/cm^3, and centrifuged at 400 g for 40 min. The white ring produced at the phase interface, which contained mononuclear cells, was carefully withdrawn with a Pasteur pipette and washed twice with medium 199 using 10-minute-long centrifugation (200 g). The precipitate was resuspended in a nutrient medium, counted in a Goryayev counting chamber and adjusted to the required concentration.
(§6) Dalargin was added at a molar concentration of 5.10^−8 M (Z0.036 μg/mL) to the test samples with the polysaccharide and mononuclear cell suspension. The drug was not added to control samples.
(§7) Cytokine quantitation in blood serum was performed using two-site ELISA.

IL-6 = test: as above; assay type: cell-based, healthy donors; conditions: 5.10^−8 M, relative to control samples (100%)
Description: as §4, §5, §6, §7

TNF-α = test: as above; assay type: cell-based, healthy donors; conditions: 5.10^−8 M, relative to control samples (100%)
Description: as §4, §5, §6, §7

| SMILES | inhibition at 10 µg/mL ([1]; Influenza A virus, H1N1, MDCK, concentration of 10.0 μg/mL, read-out: inhibiting effect on the reproduction of epidemic virus strains) [%] | MIC values (MIC50, concentration inhibiting virus reproduction by 50%), comparison ([1]; MDCK tissue culture, hexapeptide versus ARBIDOL) | efficacy relative to Arbidol in terms of mean lifetime and survival rate ([2]; Dalargin 2 mg/kg/day IM or intranasal) | mortality due to influenza-induced pneumonia ([2]; IM or intranasal 2 mg/kg/day for 5 days, relative to placebo) | weight loss ([2]; relative to control/placebo, weighed on days 3, 5 and 15) | protective efficacy (type 5 adenovirus; 10 μg/mL) [%] | growth of protective efficacy, administration 24 h before challenge relative to 2 hours after challenge (type 5 adenovirus; added to the maintenance medium) | protection of cells from the cytopathogenic effect of the virus (type 5 adenovirus; administered 24 h before challenge, 0.01 TCID50 per cell, concentrations of 100, 20 and 10) | IFN-α level in blood plasma/serum (IFN-α) | effect on cytotoxic activity of natural killer cells (natural killer cells) | phagocytic activity (phagocytosis) of peptone-mobilised neutrophils (neutrophils) | phagocytosis of peritoneal exudate macrophages, ability to reduce NBT (macrophages) | lipopolysaccharide-induced production of IL-1 (IL-1) | lipopolysaccharide-induced production of IL-6 (IL-6) | lipopolysaccharide-induced production of TNF-α (TNF-α) |
| --- | --- | --- | --- | --- | --- | --- | --- | --- | --- | --- | --- | --- | --- | --- | --- |
| CCOC(=O)c1c(CSc2ccccc2)n(C)c2cc(Br)c(O)c(CN(C)C)c12 [ARBIDOL, reference compound] | 100 |  |  |  |  |  |  |  |  |  |  |  |  |  |  |
| CC(C)C[C@H](NC(=O)[C@H](Cc1ccccc1)NC(=O)CNC(=O)[C@@H](C)NC(=O)[C@@H](N)Cc1ccc(O)cc1)C(=O)N[C@@H](CCCNC(=N)N)C(=O)O [Dalargin, tyrosyl-D-alanyl-glycyl-phenylalanyl-leucyl-arginine] (H-Y[dA]GFLR-OH) |  | lower MIC values | greater efficacy | reduces the mortality | reduces weight loss | 40.0 | 10-20% | almost completely protected | significant production | immunotropic potential | capable of increasing the phagocytic activity | stimulating effect | significant suppression | significant suppression | significant suppression |
